Source: patent US11076597B2, “High stress resistant plant growth regulator and preparation method and use thereof” (SHANGHAI INSTITUTES FOR BIOLOGICAL SCIENCES, CHINESE …, priority 2015, dated 2021)
Entries after “also recorded” stand apart in the source; their conditions may differ. Like-named read-outs stand apart in the source and are kept apart here.

Legend:
[1] = molecular target: T1, PYL2 receptor-HAB1 complex (Arabidopsis thaliana, UniProt O80992); assay: HAB1 phosphatase activity assay (SnRK2.6 phosphorylated polypeptide as substrate); type: biochemical; conditions: FIG. 1a-1g; 100 nM HAB1, 500 nM PYL2
T1 construct: made in house; host or cells: E. coli BL21 (DE3)
T1 sequence (O80992 14-188): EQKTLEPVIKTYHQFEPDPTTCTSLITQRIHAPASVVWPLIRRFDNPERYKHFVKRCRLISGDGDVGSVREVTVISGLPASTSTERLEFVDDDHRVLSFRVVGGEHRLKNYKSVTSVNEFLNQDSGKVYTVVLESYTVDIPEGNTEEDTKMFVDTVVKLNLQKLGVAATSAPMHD
T1 sequence (Q9CAJ0 172-511 partner limits assumed): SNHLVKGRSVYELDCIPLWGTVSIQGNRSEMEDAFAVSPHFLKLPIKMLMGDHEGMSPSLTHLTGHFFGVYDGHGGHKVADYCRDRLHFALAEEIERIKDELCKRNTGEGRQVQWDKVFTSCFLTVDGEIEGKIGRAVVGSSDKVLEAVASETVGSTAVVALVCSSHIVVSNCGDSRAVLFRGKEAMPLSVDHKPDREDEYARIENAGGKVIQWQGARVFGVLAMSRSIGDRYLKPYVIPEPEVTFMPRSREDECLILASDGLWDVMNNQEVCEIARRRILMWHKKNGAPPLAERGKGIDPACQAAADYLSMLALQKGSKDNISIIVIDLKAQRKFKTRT
Procedure: 50 mM imidazole, pH 7.2, 5 mM MgCl2, 0.1% β-mercaptoethanol, 0.5 μg·ml^−1 BSA, 100 nM HAB1 protein with a Biotin tag sequence, 500 nM PYL2 receptor protein with 6×His-SUMO dual tag sequence and the corresponding concentration of (+)-ABA/0224/0304/0706/0708/0713/0715/1028c/0428/1022B/NC0F4 were contained in the reaction system. The reaction system was incubated at room temperature for 30 minutes, followed by a further reaction for 30 minutes after adding an 11-amino acid phosphorylated polypeptide as a substrate. The phosphorylated polypeptide is amino acid 170-180 of SnRK2.6 protein kinase, wherein phosphorylated serine at position 175 (with a sequence of HSQPKpSTVGTP, purchased from Kingsley Company) was a known HAB1 dephosphorylation target site. After 30 minutes, chromogenic reagent (purchased from BioVision) was added and the absorbance at 650 nm was read on a microplate reader (Molecular Devices).

[2] = molecular target: T2, PYR1 receptor-HAB1 protein phosphatase complex (Arabidopsis thaliana, UniProt O49686); assay: AlphaScreen assay, PYR1 receptor binding to HAB1; type: biochemical; conditions: fraction of the EC50 of ABA; FIG. 2a, 2h
T2 construct: made in house; host or cells: E. coli BL21 (DE3)
T2 sequence (O49686 1-191): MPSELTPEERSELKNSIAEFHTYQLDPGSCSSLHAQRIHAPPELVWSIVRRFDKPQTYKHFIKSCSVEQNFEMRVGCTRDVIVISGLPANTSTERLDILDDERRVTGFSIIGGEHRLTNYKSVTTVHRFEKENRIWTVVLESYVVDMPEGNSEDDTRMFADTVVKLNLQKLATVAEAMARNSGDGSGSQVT
T2 sequence (Q9CAJ0 172-511 partner limits assumed): T1 sequence (Q9CAJ0 172-511 partner limits assumed)
Procedure: (§1) The AlphaScreen kit (available from Perkin Elmer) was used, and the method was as follows: a 10× buffer (50 mM MOPS, pH 7.4, 50 mM NaF, 50 mM CHAPS, 0.1 mg/ml bovine serum albumin) diluted at 1:10, each of 100 nM HAB1 with Biotin tag sequence and PYR1/PYL1/PYL2/PYL7/GmPYL6/OsPYL2 protein with dual tags of 6×His and SUMO sequences, corresponding concentrations of (+)-ABA/0224/0304/0706/0708/0713/0715/0428/NC0F4, and 5 μg/ml donor beads and acceptor beads (available from Perkin Elmer) were contained in 150 μl of experimental system. After incubating for 1.5 hours at room temperature in the dark, it was placed into an Envision Plate Reader (available from Perkin Elmer) under the programmed AlphaScreen procedure for readings.
(§2) AlphaScreen technology was used to test the ability of the compounds of the present invention to promote PYL receptor binding to PP2C protein phosphatase (HAB1).

[3] = molecular target: T3, PYL2 receptor-HAB1 protein phosphatase complex (Arabidopsis thaliana, UniProt O80992); assay: AlphaScreen assay, PYL2 receptor binding to HAB1; type: biochemical; conditions: fraction of the EC50 of ABA; FIG. 2c, 2e-2g
T3 construct: made in house; host or cells: E. coli BL21 (DE3)
T3 sequence (O80992 14-188): T1 sequence (O80992 14-188)
T3 sequence (Q9CAJ0 172-511 partner limits assumed): T1 sequence (Q9CAJ0 172-511 partner limits assumed)
Procedure: as §1, §2

[4] = molecular target: T2, PYR1 receptor-HAB1 protein phosphatase complex; assay: AlphaScreen assay: promotion of PYR1 receptor binding to PP2C protein phosphatase HAB1; conditions: FIG. 2h; 6×His-SUMO-tagged PYR1 (whole coding sequence), Biotin-tagged HAB1 (aa 172-511), 100 nM each; pH 7.4; 1.5 h room temperature; read-out: EC50
Description: (§3) The construction method of recombinant plasmids for the Arabidopsis thaliana genes PYL1 (amino acid sequence 36-211), PYL2 (amino acid sequence 14-188) with dual tags of 6×His and SUMO sequence and the Arabidopsis thaliana gene HAB1 (amino acid sequence 172-511) with the Biotin tag sequence is described in detail in “A gate-latch-lock mechanism for hormone signaling by abscisic acid receptors” (Nature, Vol 462, 2009). The construction method of recombinant plasmids for PYR1 and PYL7 (whole gene coding sequence) and Soybean GmPYL6 and rice OsPYL2 with dual tags of 6×His and SUMO sequence is the same as that for Arabidopsis PYL2.
(§4) The above recombinant plasmid is transformed into competent cell of E. coli BL21 (DE3) (purchased from NEB company), and inoculated into 200 ml of LB liquid medium containing Amp resistance (purchased from OXOID company) and cultured overnight at 37° C. at 200 rpm; and inoculated into 2 L of LB liquid medium containing Amp resistance at a ratio of 1:50-1:100 for an extended culture, and cultured at 37° C., 200 rpm for 3-4 hours, and at a low temperature of 16° C. until OD600 is about 0.8-1.0. Recombinant plasmids for PYR1/PYL1/PYL2/PYL7/GmPYL6/OsPYL2 with dual tags of 6×His and SUMO sequence were induced overnight with 100 μM of IPTG while HAB1 recombinant plasmid with the Biotin tag sequence was induced simultaneously with 100 μM of IPTG and 40 μM of biotin.
(§5) After 16 hours of induction, the bacterial solution was centrifuged at 4000 rpm for 20 minutes at 4° C. in a low-speed high-capacity centrifuge, and the bacteria cells were collected. Bacteria cells were resuspended in 50 ml of extraction buffer (containing 20 mM Tris, pH 8.0, 200 mM NaCl and 10% (v/v) glycerol) for per 2 L of bacterial solution and then subjected to pressure-breaking at […] and 4° C. for 3-5 times. The broken cells were subjected to ultracentrifugation, centrifuged at 16000 rpm for 30 minutes, and this process was repeated twice. The supernatant was collected and subjected to an affinity chromatography column.
(§6) For PYR/PYL proteins with dual tags of 6×His and SUMO sequences, 50 ml of affinity chromatography Ni column (50 ml Ni-NTA column, available from GE) was used. Firstly, the column was equilibrated with 600 ml of 10% buffer B (containing 20 mM Tris, PH 8.0, 200 mM NaCl, 500 mM imidazole and 10% glycerol), and then eluted with 200 ml of 50% buffer B and finally eluted with 100 ml of 100% buffer B. Proteins for crystal analysis were mixed with ulp1 enzyme at a molar ratio of 1000:1 for enzymatic dialysis overnight. The digested proteins were subjected to affinity chromatography on a Ni column once more. The collected solution was subjected to a HiLoad 26/60 Superdex200 gel filtration column (commercially available from GE) and eluted with an elution solution (containing 25 mM Tris, pH 8.0, 200 mM ammonium acetate, 1 mM dithiotreitol and 1 mM EDTA) to further separate and purify the protein.
(§7) For a HAB1 protein with a Biotin tag sequence, it was subjected to a 50 ml MBP affinity column (available from GE). The column was firstly equilibrated with 600 ml of 10% buffer C (containing 20 mM Tris, pH 8.0, 200 mM NaCl, 10 mM Maltose and 10% Glycerol), and eluted with 200 ml of 50% buffer C and finally eluted with 100 ml of 100% buffer C. […]

[5] = molecular target: T3, PYL2 receptor-HAB1 protein phosphatase complex; assay: AlphaScreen assay: promotion of PYL2 receptor binding to PP2C protein phosphatase HAB1; conditions: 6×His-SUMO-tagged PYL2 (aa 14-188), Biotin-tagged HAB1 (aa 172-511), 100 nM each, pH 7.4, 1.5 h room temperature, read-out: EC50
Description: as §3, §4, §5, §6
as §7, with “C. The collection solution was subjected to a HiLoad 26/60 Superdex200 gel filtration column and eluted with an elution solution (containing 20 mM Tris, pH 8.0, 200 mM NaCl and 10% Glycerol) to further separate and purify the protein.” for “C.”

[6] = system: ABA-induced environmental stress-related gene (COR15a, COR47, RAB18 and RD29b); assay: Gene expression analysis (fluorescence quantitative PCR); type: in vivo, Arabidopsis thaliana (Col-0); conditions: 10 μM, 6 hours, 10-day-aged seedlings; FIG. 10
Procedure: The whole plant or leaves were taken, and RNA extraction was carried out by using conventional methods. After reverse transcription, the fluorescence quantitative PCR was carried out. Three biological samples were taken for each treatment which was performed twice. The ACT7 gene was used as a reference gene.

Row | Compound | EC50 value with PYR1 receptor-HAB1 complex as fraction of that of ABA [2] | EC50 value with PYL2 receptor-HAB1 complex as fraction of that of ABA [3] | EC50 [4] | EC50 ([5]; FIG. 2g) | EC50 ([5]; FIG. 2e) | inhibition of HAB1 protein phosphatase activity by promoting binding between PYL2 receptor and HAB1 [1] | expression level of COR15a, COR47, RAB18 and RD29b [6]
1 | CCCN1C(=O)NCc2cc(NS(=O)(=O)Cc3c(F)c(F)c(C)c(F)c3F)ccc21 [Compound NC0F4] | about 1/11 | better PYL2 receptor affinity over ABA | 373 nM |  |  | inhibiting the activity of protein phosphatase HAB1; also recorded: inhibiting the dephosphorylation effect of HAB1 on SnRK2.6 phosphorylated polypeptide | 
2 | CCCn1c(=O)ccc2cc(NS(=O)(=O)Cc3ccc(C)cc3)ccc21 [Compound 1022B] |  | one order of magnitude lower than that of ABA |  | 180 nM |  | inhibiting the activity of protein phosphatase HAB1; also recorded: inhibiting the dephosphorylation effect of HAB1 on SnRK2.6 phosphorylated polypeptide | all higher than those of ABA; also recorded: significantly increased
3 | CCCN1C(=O)NC(C)c2cc(NS(=O)(=O)Cc3c(F)c(F)c(C)c(F)c3F)ccc21 (stereo not drawn) [Compound 1028c] |  |  |  |  |  | inhibiting the activity of protein phosphatase HAB1; also recorded: inhibiting the dephosphorylation effect of HAB1 on SnRK2.6 phosphorylated polypeptide | 

More lines, main results first:

Row | EC50 value with PYR1 receptor-HAB1 complex as fraction of that of ABA [2] | EC50 value with PYL2 receptor-HAB1 complex as fraction of that of ABA [3] | EC50 [4] | EC50 ([5]; FIG. 2g) | EC50 ([5]; FIG. 2e) | Compound | inhibition of HAB1 protein phosphatase activity by promoting binding between PYL2 receptor and HAB1 [1] | expression level of COR15a, COR47, RAB18 and RD29b [6]
4 |  | ⅕-⅛ |  |  | 181 nM | Cc1c(F)c(F)c(CS(=O)(=O)Nc2ccc3c(c2)C(C)OC(=O)N3CC(C)C)c(F)c1F (stereo not drawn) [Compound 0713] | inhibiting the activity of protein phosphatase HAB1; also recorded: inhibiting the dephosphorylation effect of HAB1 on SnRK2.6 phosphorylated polypeptide | 
5 |  | ⅕-⅛ |  |  | 136 nM | Cc1c(F)c(F)c(CS(=O)(=O)Nc2ccc3c(c2)C(C)OC(=O)N3C(C)C)c(F)c1F (stereo not drawn) [Compound 0708] | inhibiting the activity of protein phosphatase HAB1; also recorded: inhibiting the dephosphorylation effect of HAB1 on SnRK2.6 phosphorylated polypeptide | 
